Drawing on ChEMBL document CHEMBL4043078, “Biological evaluation of pyridone alkaloids on the endocannabinoid system” (Bioorg Med Chem, 2017), this text covers IC50, inhibition and Ki for six compounds.

Assay [1] has as its target T1, Fatty-acid amide hydrolase 1 (Homo sapiens, UniProt O00519).
T1 sequence (O00519 whole entry): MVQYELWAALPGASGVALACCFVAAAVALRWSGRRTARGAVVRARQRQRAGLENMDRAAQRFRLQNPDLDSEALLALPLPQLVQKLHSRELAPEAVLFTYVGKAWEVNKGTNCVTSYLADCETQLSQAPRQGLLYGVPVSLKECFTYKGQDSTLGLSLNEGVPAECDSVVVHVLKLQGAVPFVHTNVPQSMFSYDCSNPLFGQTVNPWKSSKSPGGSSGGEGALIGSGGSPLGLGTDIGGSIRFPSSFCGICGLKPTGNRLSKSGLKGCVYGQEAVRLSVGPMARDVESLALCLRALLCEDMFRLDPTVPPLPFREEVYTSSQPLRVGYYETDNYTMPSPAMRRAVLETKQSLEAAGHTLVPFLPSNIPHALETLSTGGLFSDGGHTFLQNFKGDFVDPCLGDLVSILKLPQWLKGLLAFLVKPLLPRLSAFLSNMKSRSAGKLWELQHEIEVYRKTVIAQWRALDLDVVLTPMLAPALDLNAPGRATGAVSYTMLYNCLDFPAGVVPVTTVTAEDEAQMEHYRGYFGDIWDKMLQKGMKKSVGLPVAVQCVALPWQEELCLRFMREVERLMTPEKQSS
Put plainly: Inhibition of FAAH in human U937 cells using [ethanolamine-1-3H]AEA as substrate after 15 mins by liquid scintillation counting method. The class given is cell-based.

Assay [2] deals with T2, Lysophosphatidylserine lipase ABHD12 (Mus musculus) (UniProt Q99LR1).
T2 sequence (whole entry): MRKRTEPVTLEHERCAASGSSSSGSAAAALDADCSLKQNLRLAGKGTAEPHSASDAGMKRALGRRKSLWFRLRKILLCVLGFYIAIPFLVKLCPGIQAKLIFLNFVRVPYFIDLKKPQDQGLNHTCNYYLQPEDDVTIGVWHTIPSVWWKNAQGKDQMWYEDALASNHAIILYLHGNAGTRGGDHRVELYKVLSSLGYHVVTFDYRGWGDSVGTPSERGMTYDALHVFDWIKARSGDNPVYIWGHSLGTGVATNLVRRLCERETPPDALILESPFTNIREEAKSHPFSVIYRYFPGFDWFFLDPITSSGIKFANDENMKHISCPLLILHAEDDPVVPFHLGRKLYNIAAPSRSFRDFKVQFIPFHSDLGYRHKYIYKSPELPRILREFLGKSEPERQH
The assay is described as follows: Inhibition of ABHD12 in mouse BV2 cells preincubated for 30 mins and subsequent addition of [3H]-2-OG substrate measured after 15 mins by liquid scintillation counting method. It is filed as cell-based.

For assay [3], the target named is T3, Fatty-acid amide hydrolase 1 (Homo sapiens) (UniProt O00519).
T3 sequence (whole entry): T1 sequence (O00519 whole entry)
The assay is described as follows: Inhibition of FAAH in human U937 cells using [ethanolamine-1-3H]AEA as substrate at 10 uM after 15 mins by liquid scintillation counting method relative to control. It is filed as cell-based.

A short description of assay [4]: Inhibition of MAGL in pig brain homogenates using [3H]2-OG as substrate after 15 mins by liquid scintillation counting method. It is filed as tissue-based, Sus scrofa.
The target of assay [5] is T3, Fatty-acid amide hydrolase 1 (Homo sapiens). The assay is described as follows: Inhibition of FAAH in human U937 cells assessed as decrease in [ethanolamine-1-3H]AEA uptake at 10 uM preincubated for 2 mins followed by AEA addition after 5 mins by liquid scintillation counting method. It is filed as cell-based.
For assay [6], the target named is T4, Prostaglandin G/H synthase 2 (Homo sapiens, UniProt P35354).
T4 sequence (P35354 whole entry): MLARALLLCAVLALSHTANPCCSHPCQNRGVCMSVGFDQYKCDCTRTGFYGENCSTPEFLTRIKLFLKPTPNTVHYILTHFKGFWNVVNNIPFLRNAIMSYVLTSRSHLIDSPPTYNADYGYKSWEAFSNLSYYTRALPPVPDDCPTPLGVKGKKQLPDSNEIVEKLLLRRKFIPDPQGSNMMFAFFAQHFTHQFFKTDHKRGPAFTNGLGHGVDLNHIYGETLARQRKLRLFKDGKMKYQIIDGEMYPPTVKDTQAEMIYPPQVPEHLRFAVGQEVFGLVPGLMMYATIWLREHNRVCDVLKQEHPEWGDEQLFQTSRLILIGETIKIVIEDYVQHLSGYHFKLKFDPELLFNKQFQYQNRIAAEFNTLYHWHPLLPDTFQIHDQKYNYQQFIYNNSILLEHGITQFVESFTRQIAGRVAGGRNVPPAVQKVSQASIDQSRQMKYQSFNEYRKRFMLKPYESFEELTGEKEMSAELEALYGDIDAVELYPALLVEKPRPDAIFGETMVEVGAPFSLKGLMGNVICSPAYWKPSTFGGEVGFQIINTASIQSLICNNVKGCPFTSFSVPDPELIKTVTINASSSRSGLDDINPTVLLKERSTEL
Put plainly: Inhibition of recombinant human COX2 preincubated for 15 mins followed by arachidonic acid/2-OG substrate addition after 5 mins by ADHP probe-based fluorescence assay.

Assay [7] deals with T1, Fatty-acid amide hydrolase 1. Put plainly: Inhibition of FAAH in human U937 cells assessed as decrease in [ethanolamine-1-3H]AEA uptake preincubated for 2 mins followed by AEA addition after 5 mins by liquid scintillation counting method. The class given is cell-based.
Assay [8] deals with T5, Cannabinoid receptor 1 (Homo sapiens, UniProt P21554). The assay is described as follows: Displacement of [3H]CP55,940 from human CB1 receptor expressed in CHOK1 cell membranes at 1 uM after 2 hrs by liquid scintillation counting method relative to control.
T5 sequence (P21554 whole entry): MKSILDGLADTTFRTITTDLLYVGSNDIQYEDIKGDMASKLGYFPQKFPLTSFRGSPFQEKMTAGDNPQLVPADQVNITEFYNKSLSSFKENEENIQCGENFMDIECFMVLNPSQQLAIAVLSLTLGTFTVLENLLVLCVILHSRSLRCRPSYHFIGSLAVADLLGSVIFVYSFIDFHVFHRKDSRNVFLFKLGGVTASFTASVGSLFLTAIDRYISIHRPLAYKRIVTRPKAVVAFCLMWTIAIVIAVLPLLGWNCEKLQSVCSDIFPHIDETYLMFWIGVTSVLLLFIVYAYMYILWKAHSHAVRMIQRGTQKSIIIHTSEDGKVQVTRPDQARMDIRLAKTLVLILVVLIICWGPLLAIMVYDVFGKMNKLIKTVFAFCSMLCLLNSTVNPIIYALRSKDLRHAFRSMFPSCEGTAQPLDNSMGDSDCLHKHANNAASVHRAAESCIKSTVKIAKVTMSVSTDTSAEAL
In assay [9] the target is T6, Cannabinoid receptor 2 (Homo sapiens, UniProt P34972). The assay is described as follows: Displacement of [3H]CP55,940 from human CB2 receptor expressed in CHOK1 cell membranes after 2 hrs by liquid scintillation counting method.
T6 sequence (P34972 whole entry): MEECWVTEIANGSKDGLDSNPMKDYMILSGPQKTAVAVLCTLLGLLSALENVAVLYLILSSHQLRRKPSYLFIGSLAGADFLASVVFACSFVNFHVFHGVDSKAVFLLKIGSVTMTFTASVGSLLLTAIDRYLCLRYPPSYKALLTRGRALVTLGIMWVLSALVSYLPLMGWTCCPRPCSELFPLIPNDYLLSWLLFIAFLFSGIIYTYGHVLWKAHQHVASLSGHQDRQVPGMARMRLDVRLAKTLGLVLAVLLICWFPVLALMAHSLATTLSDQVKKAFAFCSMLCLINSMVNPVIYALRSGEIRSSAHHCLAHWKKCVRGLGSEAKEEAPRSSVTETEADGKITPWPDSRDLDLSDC
The target in assay [10] is T6, Cannabinoid receptor 2. The assay is described as follows: Displacement of [3H]CP55,940 from human CB2 receptor expressed in CHOK1 cell membranes at 1 uM after 2 hrs by liquid scintillation counting method relative to control.
Assay [11] addresses T7, Monoacylglycerol lipase ABHD6 (Mus musculus) (UniProt Q8R2Y0).
T7 sequence (whole entry): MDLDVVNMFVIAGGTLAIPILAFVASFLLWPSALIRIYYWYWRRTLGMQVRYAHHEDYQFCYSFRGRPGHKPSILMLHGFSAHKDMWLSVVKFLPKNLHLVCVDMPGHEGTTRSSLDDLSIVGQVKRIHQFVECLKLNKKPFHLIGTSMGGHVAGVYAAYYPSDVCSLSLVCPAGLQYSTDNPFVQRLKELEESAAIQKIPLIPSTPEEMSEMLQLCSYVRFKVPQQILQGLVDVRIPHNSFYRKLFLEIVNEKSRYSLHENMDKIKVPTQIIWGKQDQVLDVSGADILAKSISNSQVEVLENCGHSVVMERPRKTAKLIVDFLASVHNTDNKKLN
The assay is described as follows: Inhibition of ABHD6 in mouse BV2 cells preincubated for 30 mins and subsequent addition of [3H]-2-OG substrate measured after 15 mins by liquid scintillation counting method. The class given is cell-based.

In assay [12] the target is T5, Cannabinoid receptor 1. The assay is described as follows: Displacement of [3H]CP55,940 from human CB1 receptor expressed in CHOK1 cell membranes after 2 hrs by liquid scintillation counting method.
The species named for another assay is Sus scrofa. Put plainly: Inhibition of MAGL in pig brain homogenates using [3H]2-OG as substrate at 10 uM after 15 mins in presence of URB597 by liquid scintillation counting method. It is filed as tissue-based.

The source made the active and inactive calls. The calls are words filed in the database; no cut-off is given here. A value given as a limit tells only on which side of the number the result lay.

With `CCCCCCCCCCCC(=O)c1c(O)c(-c2ccc(O)cc2)c[nH]c1=O`, the half-maximal inhibitory concentration (IC50) in [1] was 4600 nM; in [4], > 10000 nM; in assay [6], > 10000 nM; in [7] it was 800 nM. The inhibition result (in assay [2]; at Cannabinoid receptor 2 [10]; in assay [11]; in the assay listed under Sus scrofa) was “inactive” each time. Moreover, the inhibition in assay [3] was 40 to 50%; at Cannabinoid receptor 1 [8], 50%. In addition, the inhibition entry in assay [5] is “Active”. For the same compound, the Ki on Cannabinoid receptor 2 [9] is > 1000 nM; on Cannabinoid receptor 1 [12], 1000 nM.

Consider `CCC(C)/C=C(C)/C=C/C=C/C=C/C(=O)c1c(O)c(-c2ccc(O)cc2)c[nH]c1=O` (stereo not given) [FARINOSONE A], for which the IC50 in assay [1] was > 10000 nM; in [4], > 10000 nM; in assay [6], > 10000 nM; in [7], 1200 nM. Also, the inhibition result (in assay [2]; in assay [11]; in the assay filed under Sus scrofa) was “inactive” each time. In addition, in assay [5], the inhibition result is “Active”. The inhibition at Cannabinoid receptor 1 [8] and at Cannabinoid receptor 2 [10] was < 20% throughout. The Ki on Cannabinoid receptor 2 [9] and on Cannabinoid receptor 1 [12] was > 1000 nM each time.

As to `CCCCCCCCCCCCCCCCCC(=O)c1c(O)c(-c2ccc(O)cc2)c[nH]c1=O`, the 50% inhibitory concentration (IC50) in assay [1], in [4], in assay [6] and in [7] was > 10000 nM each time. Moreover, the inhibition result (in assay [2]; in assay [5]; in assay [11]; in the assay filed under Sus scrofa) was “inactive” in each case. The inhibition on Cannabinoid receptor 1 [8] and on Cannabinoid receptor 2 [10] was < 20% throughout. Moreover, the Ki at Cannabinoid receptor 2 [9] and at Cannabinoid receptor 1 [12] was > 1000 nM throughout.

For `CCCCCCCCCCOC(=O)c1c(O)c(-c2ccc(O)cc2)c[nH]c1=O`, the IC50 in assay [1] is > 10000 nM; in assay [4], > 10000 nM; in assay [6], > 10000 nM; in [7], 600 nM. Besides, the inhibition result (in [2]; in assay [11]; in the assay listed under Sus scrofa) was “inactive” throughout. Further, the inhibition was 40 to 50% in assay [3], < 20% at Cannabinoid receptor 1 [8] and < 20% at Cannabinoid receptor 2 [10]. Further, the inhibition result in assay [5] is “Active”. Further, the Ki on Cannabinoid receptor 2 [9] and at Cannabinoid receptor 1 [12] was > 1000 nM each time.

With `CCC(C)CC(C)/C=C(C)/C=C/C=C/C(=O)c1c(O)c(-c2ccc(O)cc2)c[nH]c1=O` (stereo not given), the inhibition entry (in assay [2]; in assay [11]; in the assay filed under Sus scrofa) was “inactive” in each case. The inhibition in assay [3] is 40 to 50%; at Cannabinoid receptor 1 [8] it was < 20%; on Cannabinoid receptor 2 [10], < 20%. In addition, the inhibition entry in assay [5] is “Active”.

Turning to `CCCCCCCC(=O)c1c(O)c(-c2ccc(O)cc2)c[nH]c1=O`, the IC50 was > 10000 nM in assay [1], > 10000 nM in [4], > 10000 nM in assay [6] and 700 nM in [7]. In addition, the inhibition result (in assay [2]; in assay [11]; in the assay filed under Sus scrofa) was “inactive” each time. The inhibition in assay [3] is 80%; on Cannabinoid receptor 1 [8], < 20%; on Cannabinoid receptor 2 [10], < 20%. For the same compound, the inhibition result in assay [5] is “Active”. Besides, the Ki at Cannabinoid receptor 2 [9] and at Cannabinoid receptor 1 [12] was > 1000 nM throughout.
